# Source: patent US20240050431A1, “NEUROENDOCRINE DIFFERENTIATION IN IMIPRIDONE CANCER TREATMENT” (BROWN UNIVERSITY, priority 2022, published 2024)
# Key:
# DU145 [1] = test: CellTiter-Glo (CTG) viability assay, DU145; format: cell-based; settings: Homo sapiens, DU-145, 72 h
# PC3 = test: CellTiter-Glo (CTG) viability assay, PC3; format: cell-based; settings: Homo sapiens, PC-3, 72 h
# LNCaP = test: CellTiter-Glo (CTG) viability assay, LNCaP; format: cell-based; settings: Homo sapiens, 72 h
# DU145 [2] = test: Protein expression of TRAIL pathway proteins, DU145; format: cell-based; settings: DU145 treated with ONC201 at IC50; 12, 24 and 48 hours
# Text: FIGS. 2A-2C provide images showing NED marker expression in PC and SCLC.
# 22RV1 = test: Protein expression of TRAIL pathway proteins, 22RV1; format: cell-based; settings: 22RV1 treated with ONC201 at IC50; 12, 24 and 48 hours
# [3] = system: tumor cell lines (n=6) from prostate and small cell lung cancer tissues; test: CellTiter-Glo (CTG) viability assay, panel of tumor cell lines; settings: 6 PC and SCLC cell lines; varying drug concentrations, 72 hours
compound,measurement,setting,value
Cc1ccccc1CN1C(=O)C2=C(CCN(Cc3ccccc3)C2)N2CCN=C12 [ONC201],IC50,DU145 [1],3.11 µM
same,IC50,PC3,3.02 µM
same,IC50,LNCaP,1.33 µM
same,ATF4 protein expression,DU145 [2],upregulation of ATF4 ISR pathway
same,CLpX protein expression,DU145 [2],decreased CLpX expression
same,ATF4 protein expression,22RV1,upregulation of ATF4 ISR pathway
same,CLpX protein expression,22RV1,decreased CLpX expression
same,Sensitivity and cytotoxicity (viability),[3],shows sensitivity and cytotoxicity to tumor cell lines
